The results in this text go back to patent US20240043404A1 (AbbVie Inc., priority 2009, published 2024).

For this test, the system named is RS4;11 cells. The test is described as follows: RS4;11 cell viability assay (CellTiter Glo).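 Further: acute lymphoblastic leukemia line RS4,11, EC50 derived from percentage of viable cells after treatment relative to untreated controls, cell killing taken as a measure of Bcl-2 inhibition.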 The following applies: Homo sapiens, read-out: RS4. It is filed as cell-based, human. In general terms: In ATP-based viability assays light output follows the ATP content of the culture.
[1] abbreviates: RS4-11, 48 h, 50,000 cells per well, 10% human serum, 48 hours, 11 EC50 Values.
Setting [2] is: RS4-11, Table 5, direct comparison Z=N with corresponding analogs Z=C, 11 EC50.
Where [3] appears, read: RS4-11, Table 4, selected compounds in U.S. Pat. Application No. 12/631404, 11 EC50.

Read-outs that look alike come from different tables or passages of the source.

Protocol: The acute lymphoblastic leukemia (ALL) cell line RS4;11 was used as the primary human cell line to assess the cellular activity of Bcl-2 selective agents in vitro and their efficacy in vivo.
Cell cytotoxicity EC50 values were assessed using CellTiter Glo (Promega) according to the manufacturer's recommendations. The EC50 values were determined as a percentage of viable cells following treatment compared to the untreated control cells.

Turning to `CC1(C)CCC(CN2CCN(c3ccc(C(=O)NS(=O)(=O)c4ccc(NC5CCN(C6CCOCC6)CC5)c([N+](=O)[O-])c4)c(Oc4cnc5[nH]ccc5c4)c3)CC2)=C(c2ccc(Cl)cc2)C1` [Example 3, 4-(4-{[2-(4-chlorophenyl)-4,4-dimethylcyclohex-1-en-1-yl]methyl}piperazin-1-yl)-N-({3-nitro-4-[(1-tetrahydro-2H-pyran-4-ylpiperidin-4-yl)amino]phenyl}sulfonyl)-2-(1H-pyrrolo[2,3-b]pyridin-5-yloxy)benzamide], the EC50 by setting is: under setting [1], 14.2 nM; under setting [2], 14.2 nM.
Regarding `O=C(NS(=O)(=O)c1ccc(OCC2(F)CCOCC2)c([N+](=O)[O-])c1)c1ccc(N2CCN(CC3=C(c4ccc(Cl)cc4)CCC4(CCCC4)C3)CC2)cc1Oc1cnc2[nH]ccc2c1` [Example 73, 4-(4-{[8-(4-chlorophenyl)spiro[4.5]dec-7-en-7-yl]methyl}piperazin-1-yl)-N-({4-[(4-fluorotetrahydro-2H-pyran-4-yl)methoxy]-3-nitrophenyl}sulfonyl)-2-(1H-pyrrolo[2,3-b]pyridin-5-yloxy)benzamide], the EC50 under setting [1] was determined as 23.7 nM.
On to `CC1(C)CCC(CN2CCN(c3ccc(C(=O)NS(=O)(=O)c4ccc(OCC5COCCO5)c([N+](=O)[O-])c4)c(Oc4ccc5[nH]ccc5c4)c3)CC2)=C(c2ccc(Cl)cc2)C1` (centres unmarked) [Example 92, 4-(4-{[2-(4-chlorophenyl)-4,4-dimethylcyclohex-1-en-1-yl]methyl}piperazin-1-yl)-N-{[4-(1,4-dioxan-2-ylmethoxy)-3-nitrophenyl]sulfonyl}-2-(1H-indol-5-yloxy)benzamide], for which the EC50 reads like this: under setting [1], 80.9 nM; under setting [3], 81 nM.
For `CC1(C)CCC(CN2CCN(c3ccc(C(=O)NS(=O)(=O)c4ccc(NCc5cccc(O)c5)c([N+](=O)[O-])c4)c(Oc4cnc5[nH]ccc5c4)c3)CC2)=C(c2ccc(Cl)cc2)C1` [Example 186, 4-(4-{[2-(4-chlorophenyl)-4,4-dimethylcyclohex-1-en-1-yl]methyl}piperazin-1-yl)-N-({4-[(3-hydroxybenzyl)amino]-3-nitrophenyl}sulfonyl)-2-(1H-pyrrolo[2,3-b]pyridin-5-yloxy)benzamide], the EC50 under setting [1] worked out at 64.4 nM.
On the same count and under the same terms, then `O=C(NS(=O)(=O)c1ccc(N[C@H]2CC[C@H](N3CCOCC3)CC2)c([N+](=O)[O-])c1)c1ccc(N2CCN(CC3=C(c4ccc(Cl)cc4)CCC4(CCCC4)C3)CC2)cc1Oc1cnc2[nH]ccc2c1` [Example 71, Trans-4-(4-{[8-(4-chlorophenyl)spiro[4.5]dec-7-en-7-yl]methyl}piperazin-1-yl)-N-({4-[(4-morpholin-4-ylcyclohexyl)amino]-3-nitrophenyl}sulfonyl)-2-(1H-pyrrolo[2,3-b]pyridin-5-yloxy)benzamide], with 91.6 nM.
Consider `CC1(C)CCC(CN2CCN(c3ccc(C(=O)NS(=O)(=O)c4ccc(N[C@H]5CC[C@H](N6CCOCC6)CC5)c([N+](=O)[O-])c4)c(Oc4ccc5[nH]ccc5c4)c3)CC2)=C(c2ccc(Cl)cc2)C1` [Example 19, Trans-4-(4-{[2-(4-chlorophenyl)-4,4-dimethylcyclohex-1-en-1-yl]methyl}piperazin-1-yl)-2-(1H-indol-5-yloxy)-N-({4-[(4-morpholin-4-ylcyclohexyl)amino]-3-nitrophenyl}sulfonyl)benzamide], for which the EC50 came to 465 nM under setting [1], 465 nM under setting [3] and 465 nM under setting [2].
For the molecule `CC1(C)CC(c2ccc(Cl)cc2)=C(CN2CCN(c3ccc(C(=O)NS(=O)(=O)c4ccc(N[C@H]5CC[C@@H](N6CCOCC6)CC5)c([N+](=O)[O-])c4)c(Oc4cnc5[nH]ccc5c4)c3)CC2)CO1` [Example 63, Cis-4-(4-{[4-(4-chlorophenyl)-6,6-dimethyl-5,6-dihydro-2H-pyran-3-yl]methyl}piperazin-1-yl)-N-({4-[(4-morpholin-4-ylcyclohexyl)amino]-3-nitrophenyl}sulfonyl)-2-(1H-pyrrolo[2,3-b]pyridin-5-yloxy)benzamide], the EC50 under setting [1] is 7.51 nM.
Same read-out and setting: to `CC1(C)CCC(CN2CCN(c3ccc(C(=O)NS(=O)(=O)c4ccc(OCC5(F)CCC(N(CCC#N)C6CC6)CC5)c([N+](=O)[O-])c4)c(Oc4cnc5[nH]ccc5c4)c3)CC2)=C(c2ccc(Cl)cc2)C1` (centres unmarked) [Example 363, 4-(4-{[2-(4-chlorophenyl)-4,4-dimethylcyclohex-1-en-1-yl]methyl}piperazin-1-yl)-N-{[4-({4-[(2-cyanoethyl)(cyclopropyl)amino]-1-fluorocyclohexyl}methoxy)-3-nitrophenyl]sulfonyl}-2-(1H-pyrrolo[2,3-b]pyridin-5-yloxy)benzamide] belongs 26.4 nM.
Still for that read-out and setting: then `CN(C)CC(=O)N1CCO[C@@H](COc2ncc(S(=O)(=O)NC(=O)c3ccc(N4CCN(CC5=C(c6ccc(Cl)cc6)CC(C)(C)CC5)CC4)cc3Oc3cnc4[nH]ccc4c3)cc2Cl)C1` [Example 247, N-[(5-chloro-6-{[(2R)-4-(N,N-dimethylglycyl)morpholin-2-yl]methoxy}pyridin-3-yl)sulfonyl]-4-(4-{[2-(4-chlorophenyl)-4,4-dimethylcyclohex-1-en-1-yl]methyl}piperazin-1-yl)-2-(1H-pyrrolo[2,3-b]pyridin-5-yloxy)benzamide], with 93 nM.
The same measure, in the same setting: then `CC(C)(CO)CNc1ccc(S(=O)(=O)NC(=O)c2ccc(N3CCN(CC4=C(c5ccc(Cl)cc5)CC(C)(C)CC4)CC3)cc2Oc2cnc3[nH]ccc3c2)cc1[N+](=O)[O-]` [Example 146, 4-(4-{[2-(4-chlorophenyl)-4,4-dimethylcyclohex-1-en-1-yl]methyl}piperazin-1-yl)-N-({4-[(3-hydroxy-2,2-dimethylpropyl)amino]-3-nitrophenyl}sulfonyl)-2-(1H-pyrrolo[2,3-b]pyridin-5-yloxy)benzamide], with 19.2 nM.
In the case of `O=C(NS(=O)(=O)c1ccc(NCC2CCOCC2)c([N+](=O)[O-])c1)c1ccc(N2CCN(CC3=C(c4ccc(Cl)cc4)CCC(CF)(CF)C3)CC2)cc1Oc1cnc2[nH]ccc2c1` [Example 353, 4-(4-{[2-(4-chlorophenyl)-5,5-bis(fluoromethyl)cyclohex-1-en-1-yl]methyl}piperazin-1-yl)-N-({3-nitro-4-[(tetrahydro-2H-pyran-4-ylmethyl)amino]phenyl}sulfonyl)-2-(1H-pyrrolo[2,3-b]pyridin-5-yloxy)benzamide], the EC50 under setting [1] was 5.05 nM.
Same read-out and setting: then `CC1(C)CCC(CN2CCN(c3ccc(C(=O)NS(=O)(=O)c4ccc(N[C@H]5CC[C@H](NC6CCOCC6)CC5)c([N+](=O)[O-])c4)c(Oc4cnc5[nH]ccc5c4)c3)CC2)=C(c2ccc(Cl)cc2)C1` [Example 123, Trans-4-(4-{[2-(4-chlorophenyl)-4,4-dimethylcyclohex-1-en-1-yl]methyl}piperazin-1-yl)-N-[(3-nitro-4-{[4-(tetrahydro-2H-pyran-4-ylamino)cyclohexyl]amino}phenyl)sulfonyl]-2-(1H-pyrrolo[2,3-b]pyridin-5-yloxy)benzamide], with 3.33 nM.
Still for that read-out and setting: then `CN1CC(Nc2ccc(S(=O)(=O)NC(=O)c3ccc(N4CCN(CC5=C(c6ccc(Cl)cc6)CC(C)(C)CC5)CC4)cc3Oc3cnc4[nH]ccc4c3)cc2[N+](=O)[O-])CC1=O` (centres unmarked) [Example 202, 4-(4-{[2-(4-chlorophenyl)-4,4-dimethylcyclohex-1-en-1-yl]methyl}piperazin-1-yl)-N-({4-[(1-methyl-5-oxopyrrolidin-3-yl)amino]-3-nitrophenyl}sulfonyl)-2-(1H-pyrrolo[2,3-b]pyridin-5-yloxy)benzamide], with 43.8 nM.
